Source: patent USRE34712E, “Pharmaceutically useful (+)-1-(3-dimethylaminopropyl)-1-(4'-fluorophenyl)-1,3-dihydroiso benzofuran-5-carbonitrile and non-toxic acid addition salts thereof” (priority 1988, dated 1994)

Experiments:
[1] = tested on: effect of 5-HTP (5-HT syndrome); experiment: 5-HTP-potentiation (5-HT syndrome in mice); type: in vivo; settings: 5-HTP 100 mg/kg i.v. 30 minutes after test substance, log-probit analysis
Method: The test evaluates the ability of the substance to potentiate the effect of 5-HTP, which results in development of 5-HT syndrome (Christensen, Fjalland, Pedersen, Danneskiold-Samsoe and Svendsen; European J. Pharmacol. 41, 153-162, 1977).
Each treatment group consists of 3 mice, and two groups are treated with the highest test dose. A control group only treated with 5-HTP is included and a group treated with citalopram 10 mg/kg and 5-HTP is used as reference for full 5-HT syndrome.
30 minutes after the administration of the test substance, the other groups are given 5-HTP (100 mg/kg) i.v. (injection time 5-10 sec.). After this 5-HTP dose normal, untreated mice remain unaffected, but if the animals have been pretreated with a substance, which inhibits the uptake of 5-HT or a 5-HT agonist, a 5-HTP syndrome will occur. The symptoms are the same as previously described: (1) excitation, (2) tremor, and (3) abduction of the hind limbs. The animals are observed for 15 minutes and each animal is given one point for each symptom present. Again the result is stated in fractions: 0/9, 1/9, . . . 9/9, where 0, 1, . . . , 9 are the number of points per group after the dose in question. The ED50 value is calculated by log-probit analysis.

depression in man = settings: racemate, Ref. A. Gravem et al. 1987; cited from earlier work
[2] = type: physicochemical
Method: A 2:1 addition compound of the (+)-isomer with L(+)-tartaric acid was prepared in the following manner: 4 g of the (+)-isomer as base were dissolved in 100 ml of diethyl ether and extracted into 100 ml of water containing 0.8 g of L(+)-tartaric acid by stirring. The organic phase was separated and discarded. The water-phase was freeze-dried in vacuo (<0.1 mm Hg) for 18 hours leaving 3.8 g of a white powder of the title compound.

For `CN(C)CCCC1(c2ccc(F)cc2)OCc2cc(C#N)ccc21` (racemic) [(±)-citalopram, 1-(3-dimethylaminopropyl)-1-(4'-fluorophenyl)-1,3-dihydroisobenzofuran-5-carbonitrile, reference compound], the ED50 ([1]; Mus musculus, iv, 0.5 h, read-out: 5-HTP pot. ED50) is given as 3.3 µmol/kg and the “antidepressant efficacy in man” value (depression in man) is given as “efficient antidepressant compound in man”.
In the case of `CN(C)CCCC1(c2ccc(F)cc2)OCc2cc(C#N)ccc21` (single isomer, unassigned; (-)) [(-)-citalopram, (-)-1-(3-dimethylaminopropyl)-1-(4'-fluorophenyl)-1,3-dihydroisobenzofuran-5-carbonitrile], the “5-HTP pot. ED50” value [1] is reported as 120 µmol/kg.
In the case of `CN(C)CCCC1(c2ccc(F)cc2)OCc2cc(C#N)ccc21` (single isomer, unassigned) [2:1 addition compound of the (+)-isomer with L(+)-tartaric acid], the “stability” value [2] is reported as “stable” and the “hygroscopicity” value ([2]; freeze-dried white powder) is reported as “not hygroscopic”.
In the case of `CN(C)CCCC1(c2ccc(F)cc2)OCc2cc(C#N)ccc21` (single isomer, unassigned; (+)) [(+)-citalopram, (+)-1-(3-Dimethylaminopropyl)-1-(4'-fluorophenyl)-1,3-dihydroisobenzofuran-5-carbonitrile], the “5-HTP pot. ED50” value [1] is reported as 2.0 µmol/kg.
